Measured values reported in patent publication US5270302A, “Derivatives of tetrapeptides as CCK agonists” (priority 1991, dated 1993).
Like-named read-outs stand apart in the source and are kept apart here. Values belong to the compound of their own block, whether it stands above or below them. *1 amine or outer side, *2 acyl side, *3 side chain or, on linkers, in order; H or OH if unused. Where a SMILES comes first, the peptide text is derived from it. Side-chain parts run from the residue outwards. [ ]: non-standard residue; d: D form. The star is where a group is joined. ξ: configuration not given here. ξαMeW = CC(N)(Cc1c[nH]c2ccccc12)C(=O)O; NMeF = CN[C@@H](Cc1ccccc1)C(=O)O; NMeD = CN[C@@H](CC(=O)O)C(=O)O; NH(2-Me-phenyl) = Cc1ccccc1N*; Boc = CC(C)(C)OC(=O)*; CO = O=C([*:1])[*:2]

Assays:
Type-A CCK receptor = target: T1, Type-A CCK receptor (Cavia porcellus, UniProt Q63931); experiment: Radioligand binding of [125I]BH-CCK-8 in guinea pig pancreatic membrane preparations
T1 construct: Cortical and pancreatic membranes were prepared as described; from tissue; host or cells: guinea pig pancreas membranes
T1 sequence (Q63931 1-430): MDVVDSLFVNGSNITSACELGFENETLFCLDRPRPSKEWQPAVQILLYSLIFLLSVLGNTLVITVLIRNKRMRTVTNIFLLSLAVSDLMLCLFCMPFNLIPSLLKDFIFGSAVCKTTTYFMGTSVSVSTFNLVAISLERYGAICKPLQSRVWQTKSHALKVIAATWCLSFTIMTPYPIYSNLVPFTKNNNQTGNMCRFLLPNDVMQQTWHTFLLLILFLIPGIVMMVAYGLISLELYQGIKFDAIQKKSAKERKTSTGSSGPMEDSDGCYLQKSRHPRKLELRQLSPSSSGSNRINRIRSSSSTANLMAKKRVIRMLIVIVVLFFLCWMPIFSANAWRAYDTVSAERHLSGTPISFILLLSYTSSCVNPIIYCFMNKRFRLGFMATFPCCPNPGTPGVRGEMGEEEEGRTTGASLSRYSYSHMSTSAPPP
How it was run: (§1)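 Membranes came from male guinea pig pancreas (type A) or cerebral cortex (type B) and were resuspended in pH 7.4 HEPES-EGTA-salt buffer containing bestatin and phosphoramidon. Test compounds competed with [125I]BH-CCK-8 in 0.1% BSA: cortex 150 min at 30 °C, pancreas 150 min at 37 °C. Reactions ended by filtration; IC50 from Hill analysis.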

Type-B CCK receptor = target: T2, Type-B CCK receptor (Cavia porcellus, UniProt H0VZC5); experiment: Radioligand binding of [125I]BH-CCK-8 in guinea pig cerebral cortical membrane preparations
T2 construct: Cortical and pancreatic membranes were prepared as described; from tissue; host or cells: guinea pig cerebral cortex membranes
T2 sequence (H0VZC5 1-426): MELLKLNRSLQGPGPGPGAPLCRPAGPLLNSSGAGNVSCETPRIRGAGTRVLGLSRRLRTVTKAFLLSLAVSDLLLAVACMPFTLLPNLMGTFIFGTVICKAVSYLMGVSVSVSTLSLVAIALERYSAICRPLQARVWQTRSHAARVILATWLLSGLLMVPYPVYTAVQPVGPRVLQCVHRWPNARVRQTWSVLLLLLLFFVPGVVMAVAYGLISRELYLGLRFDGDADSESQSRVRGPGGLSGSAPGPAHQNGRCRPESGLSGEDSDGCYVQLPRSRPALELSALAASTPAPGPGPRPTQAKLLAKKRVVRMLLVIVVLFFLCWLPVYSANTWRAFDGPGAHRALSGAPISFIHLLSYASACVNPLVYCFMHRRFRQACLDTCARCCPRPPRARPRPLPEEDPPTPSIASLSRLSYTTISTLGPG
How it was run: as §1

rats [1] = experiment: Feeding effects of acute administration of CCK agonists in rats (liquid diet); type: in vivo; details: i.p., acute (1 day)
Source text: Feeding Effects of Acute Administration of CCK Agonists in Rats
The experimental paradigm used in the above-mentioned chronic feeding studies was employed to establish dose reponses for CCK agonists of this invention on an acute (1 day) basis. Following an 8-day diet acclimation period, the rats were weighed and injected with vehicle. CCK-8 or test compound (see Table 7) at doses ranging from 1-1000 nmol/kg (i.p.). Six to ten minutes later, the rats were presented with the diet and intakes were recorded. No injections were administered prior to the P.M. feeding. Mean A.M. intakes as a percent of control were plotted versus log dose (nm/kg) to establish the dose response curve.

guinea pig acini = target: T3, guinea pig acini (Cavia porcellus, UniProt Q63931); experiment: Amylase release assay in guinea pig pancreatic acini; type: cell-based; details: 30 minutes at 37° C., reference CCK-8 3×10^-10 M
T3 sequence (Q63931 1-430): T1 sequence (Q63931 1-430)
Method: Protocol for Amylase Release Assay
Guinea Pig Acini Preparation
Pancreas was dissected out and connective tissues and blood vessels were removed. The pancreas was cut into small pieces (2 mm) by a scissor and placed in a 15 mL conical plastic tube containing 2.5 mL of Krebs-Ringer HEPES (KRH) buffer plus 400 units per mL of collagenase. […] The buffer was supplemented with 1% MEM vitamins, 1% MEM amino acids and 0.001% aprotinin (pancreatic basic trypsin inhibitor). […] The supernatant was discarded and 6 mL of the KRH was added to the cell pellet. […] This wash procedure was repeated once. The cell pellet from the last centrifugation step was then resuspended in 15 mL of KRH containing 0.1% BSA. […] The filtrate, containing the acini, was centrifuged at 50×g for 3 minutes. The acini were then resuspended in 5 mL of KRH-BSA buffer for 30 minutes at 37° C. under 100% O2, with a change of fresh buffer at 15 minutes.
After the 30 minutes incubation time, the acini was resuspended in 100 volumes of KRH-BSA buffer, containing 3 μM phosphoramidon and 100 μM bestatin. […] Amylase activity in the supernatant and the cell pellet were separately determined after appropriate dilutions in 0.1% Triton X-100® (a non-ionic detergent available from Sigma Chemical Co.), 20 mM NaH2 PO4, pH 7.4, by Abbott Amylase A-gent® test using the Abbott Bichromatic Analyzer 200.

mice [2] = experiment: Behavioral effect of CCK agonists in mice (suppression of locomotor activity); type: in vivo
Source text: Behavioral Effect of CCK Agonists in Mice
The animals were placed on a slightly elevated metal grid and restrained by the thumb and forefinger at the level of the shoulders, thus immobilizing their heads. Injections were made with a 30 gauge needle with a "stop" consisting of a piece of tygon tubing to limit penetration of the needle to about 4.5 mm below the surface of the skin. The needle was inserted perpendicular to the skull at a midline point equidistant from each eye and an equal distance posterior from the level of the eyes such that the injection site and the two eyes form an equilateral triangle. The injection volume (5 ul) was expelled smoothly over a period of approximately 1 second.
Immediately after the injections the mice were placed in their cages and allowed a 15 minute recovery period prior to the beginning of behavioral observations.
For the behavioral observations, the mice were placed in clear plastic cages. Each cage measured 19×26×15 cm and contained a 60-tube polypropylene test tube rack place on end in the center of the cage to enhance exploratory activity. Observations were made every 30 seconds for a period of 30 minutes. […] Differences among groups were analyzed by Newman-Kewels analysis and a probability level of p<0.05 was accepted as significant.

rats [3] = experiment: Feeding effects of chronic administration of CCK-8 and CCK agonists in rat (liquid diet); type: in vivo; details: ip, 10 nmol/kg, 11 days of testing
Method: Feeding Effects of Chronic Administration of CCK-8 and CCK Agonists in Rat
Adult male Sprague-Dawley rats, weighing approximately 250 g, were placed on a restricted diet. Rats were weighed every morning and were allowed access to a liquid diet (Ensure®) for 60 minutes in the morning and 45 minutes in the late afternoon; intakes were recorded every 15 minutes. […] Six to 10 minutes later, the rats were presented with the diet, and intakes were recorded as usual. No injections were administered prior to the PM feeding. After 11 days of testing, half of the animals were sacrificed while the remaining rats were withdrawn from treatment and injected with vehicle for 4 days.

rats [4] = experiment: Feeding effect of CCK agonists in food-deprived rats; type: in vivo; details: i.p., dose 20 μg/kg, one hour feeding, vehicle 9.40 grams
Method: Feeding Effect of CCK Agonists in Rats
Forty male, Sprague-Dawley rats were subjected to a 23 hour food deprivation schedule for four days. On the fifth day, the animals were divided into five equal groups based on their previous (4th day) food intake. […] The amount of food consumed was measured after subtraction of spillage.

guinea pig gallbladder = details: read-out: EC50 for contraction; isolated guinea pig gallbladder, 37° C.; 50% of the compound's own maximal contraction
Method: Guinea Pig Gallbladder Contraction
Gallbladders were obtained from male guinea pigs (250-300 gm). The bile was emptied by a small incision and the gallbladder was suspended in an organ bath. The tissue was maintained at 37° C., suspended in Krebs-Ringer buffer (mM: NaCl, 118; KCl, 4.7; CaCl2, 2.5; MgCl2, 1.2; NaH2 PO4, 1.2; NaHCO3, 25; choline chloride, 30 mM; glucose, 11) and bubbled with 95% O2 -5% CO2. Isometric contractions were recorded with a Grass polygraph. Baseline tension was set at 0.3 grams. After equilibration for approximately 30 minutes, CCK-8 (20 nM) was introduced and tensions were recorded. After reaching maximal contractions (about 5 minutes), the drug was washed out by overflow. The CCK-8 addition was repeated twice to ensure constant force of contraction.

mice [5] = experiment: Measurement of plasma insulin in mice following treatment with CCK-8 or a CCK agonist; type: in vivo; details: tail vein injection, 2 minutes
Method: Measurement of Plasma Insulin in Mice Following Treatment With CCK-8 or a CCK Agonist
Male mice, weighing from about 20 to about 30 g each, were used in all experiments. The animals were fed with laboratory lab chow and water ad libitum. CCK-8 or one the CCK agonist compounds of this invention was injected into the tail vein. Two minutes later, the animals were sacrificed and the blood was collected in 1.5 mL heparinized polypropylene tubes. The tubes were centrifuged at 10,000×g for 2 minutes. The insulin levels were determined in the supernatant, i.e., plasma, by radioimmuno assay (RIA) using kits obtained from Radioassay Systems Laboratory (Carson, CA.) or Novo Biolabs (Danbury, Conn.). The results of this assay are shown in Table 3 and are expressed as the percent increase in insulin secretion over insulin secretion observed in mice injected with a saline solution. Each dose was tested in at least six mice and the values presented are averages for the group of mice tested at each dose.

[6] = guinea pig pancreatic membranes, 37° C., 150 min, read-out: IC50 (nM) 125I-BH-CCK-8 Type-A receptor
[7] = guinea pig cortical membranes, 30° C., 150 minutes, read-out: IC50 (nM) 125I-BH-CCK-8 Type-B receptor

Compound: Cc1ccccc1NC(=O)NCCCC[C@H](NC(=O)C(Cc1c[nH]c2ccccc12)C(N)=O)C(=O)N[C@@H](CC(=O)O)C(=O)N(C)[C@@H](Cc1ccccc1)C(N)=O (stereo partly shown) [Example 106, (2-Aminocarbonyl-3-(3-indolyl)propionyl)-Lys(ε-N-(2-methylphenyl)aminocarbonyl)-Asp-(NMe)PheNH2]
IC50 (Type-A CCK receptor; [6]): 13 nM
IC50 (Type-B CCK receptor; [7]): > 10000 nM
ED25, suppression of feeding (liquid diet) (rats [1]): 6.9 nmol/kg
ED50, dose required to decrease mean A.M. food intake by 50% (rats [1]): 58.5 nmol/kg

Compound: Cc1ccccc1NC(=O)NCCCC[C@H](NC(=O)[C@H](Cc1c[nH]c2ccccc12)NC(=O)OC(C)(C)C)C(=O)N(C)[C@@H](CC(=O)O)C(=O)N(C)[C@@H](Cc1ccccc1)C(N)=O [Example 61, t-BOC-Trp-Lys(ε-N-(2-methylphenyl)aminocarbonyl)(NMe)Asp-(NMe)PheNH2] (Boc-WK([CO-NH(2-Me-phenyl)])[NMeD][NMeF]-NH2)
IC50 (Type-A CCK receptor): 4.8 nM
IC50 (Type-B CCK receptor): 10000 nM
ED25, suppression of feeding (liquid diet) (rats [1]): 0.6 nmol/kg
ED50, dose required to decrease mean A.M. food intake by 50% (rats [1]): 2.6 nmol/kg

EC50 (guinea pig acini): 3 nM
Compound: t-BOC-Trp-Nle(6-((2-methylphenyl)aminocarbonyl)oxy)-Asp-(NMe)PheNH2 [Example 114]

Compound: CSCC[C@H](NC(=O)[C@H](Cc1ccc(OS(=O)(=O)O)cc1)NC(=O)[C@@H](N)CC(=O)O)C(=O)NCC(=O)N[C@@H](Cc1c[nH]c2ccccc12)C(=O)N[C@@H](CCSC)C(=O)N[C@@H](CC(=O)O)C(=O)N[C@@H](Cc1ccccc1)C(N)=O [CCK-8, Asp-Tyr(SO3 H)-Met-Gly-Trp-Met-Asp-PheNH2]
Minimal Effective Dose, suppression of locomotor activity (mice [2]; ICV administration): 3.0 nmol/mouse
Minimal Effective Dose, suppression of locomotor activity (mice [2]; IP administration): 0.001 µmol/kg
AM liquid food intake versus controls (rats [3]): significantly reduced intakes on just the first and last treatment days
body weight gain versus controls (rats [3]): no significant effects on body weight gain
Mean Food Intake (rats [4]): 6.56 grams
EC50 (guinea pig gallbladder): 5.9 nM
% Increase In Insulin Secretion Versus Saline Control (mice [5]; dose 3 nmole/kg): 65%
% Increase In Insulin Secretion Versus Saline Control (mice [5]; dose 10 nmole/kg): 85%
% Increase In Insulin Secretion Versus Saline Control (mice [5]; dose 30 nmole/kg): 90%
% Increase In Insulin Secretion Versus Saline Control (mice [5]; dose 100 nmole/kg): 70%

Compound: CCOC(=O)C(C)(Cc1c[nH]c2ccccc12)C(=O)N[C@@H](CCCCNC(=O)Nc1ccccc1C)C(=O)N[C@@H](CC(=O)O)C(=O)N(C)[C@@H](Cc1ccccc1)C(N)=O (stereo partly shown) [Example 107, (2-Carboethoxy-2-methyl-3-(3-indolyl)propionyl)-Lys(ε-N-(2-methylphenyl)amino-carbonyl)-Asp-(NMe)PheNH2]
IC50 (Type-A CCK receptor; [6]): 21 nM
IC50 (Type-B CCK receptor; [7]): 1400 nM
ED25, suppression of feeding (liquid diet) (rats [1]): 3.7 nmol/kg
ED50, dose required to decrease mean A.M. food intake by 50% (rats [1]): 26.1 nmol/kg

Compound: Cc1ccccc1NC(=O)NCCCC[C@H](NC(=O)C(C)(N)Cc1c[nH]c2ccccc12)C(=O)N[C@@H](CC(=O)O)C(=O)N[C@@H](Cc1ccccc1)C(N)=O (stereo partly drawn) [Example 97, D,L-(α-Methyl)Trp-Lys(ε-N-(2-methylphenyl)aminocarbonyl)-Asp-PheNH2] (H-[ξαMeW]K([CO-NH(2-Me-phenyl)])DF-NH2)
IC50 (Type-A CCK receptor; IC50 (nM) 125I-BH-CCK-8 Type-A receptor, guinea pig pancreatic membranes, 37° C., 150 min): 11 nM
IC50 (Type-B CCK receptor; IC50 (nM) 125I-BH-CCK-8 Type-B receptor, guinea pig cortical membranes, 30° C., 150 minutes): 2600 nM
ED25, suppression of feeding (liquid diet) (rats [1]): 1.8 nmol/kg
ED50, dose required to decrease mean A.M. food intake by 50% (rats [1]): 9.4 nmol/kg

Compound: Cc1ccccc1NC(=O)NCCCC[C@H](NC(=O)[C@H](Cc1c[nH]c2ccccc12)NC(=O)OC(C)(C)C)C(=O)N[C@@H](CC(=O)O)C(=O)N(C)[C@@H](Cc1ccccc1)C(N)=O [Example 33, t-BOC-Trp-Lys(ε-N-(2-methylphenyl)aminocarbonyl)-Asp-(NMe)PheNH2] (Boc-WK([CO-NH(2-Me-phenyl)])D[NMeF]-NH2)
EC50 (guinea pig gallbladder): 10 nM
